Results taken from ChEMBL document CHEMBL1127385, “Synthesis and diuretic activity of alkyl- and arylguanidine analogs of N,N'-dicyclohexyl-4-morpholinecarboxamidine in rats and dogs” (J Med Chem, 1994).
Blank lines part the entries; values can stand above or below the compound they belong to.

Experiments:
[1] = system: Rattus norvegicus; test: Total electrolytic excretion of potassium in urine of rats after peroral administration of 74.8 uM/Kg of drug; format: ADME, organism-based; conditions: in vivo, po
[2] = system: Rattus norvegicus; test: Tested for the diuretic activity by measuring the urinary volume after peroral administering 74.8 uM/Kg of drug in rats; format: ADME, organism-based, Urine; conditions: in vivo, po
[3] = system: Rattus norvegicus; test: Total electrolytic excretion of chlorine in urine of rats after peroral administration of 249 uM/Kg of drug; format: ADME, organism-based; conditions: in vivo, po
[4] = system: Rattus norvegicus; test: Total electrolytic excretion of sodium in urine of rats after peroral administration of 24.9 uM/Kg of drug; format: ADME, organism-based; conditions: in vivo, po
[5] = system: Rattus norvegicus; test: Total electrolytic excretion of chlorine in urine of rats after peroral administration of 74.8 uM/Kg of drug; format: ADME, organism-based; conditions: in vivo, po
[6] = system: Rattus norvegicus; test: Total electrolytic excretion of potassium in urine of rats after peroral administration of 24.9 uM/Kg of drug; format: ADME, organism-based; conditions: in vivo, po
[7] = system: Rattus norvegicus; test: Ratio of Total electrolytic excretion of sodium and potassium in urine of rats after peroral administration of 74.8 uM/Kg of drug; format: ADME, organism-based; conditions: in vivo, po
[8] = system: Canis familiaris; test: Total electrolytic excretion of chlorine in urine of dogs after intravenous administration of 2.49 uM/Kg of drug; format: ADME, organism-based, Canis lupus familiaris; conditions: dog, in vivo
[9] = system: Rattus norvegicus; test: Total electrolytic excretion of sodium in urine of rats after peroral administration of 74.8 uM/Kg of drug; format: ADME, organism-based; conditions: in vivo, po
[10] = system: Rattus norvegicus; test: Ratio of Total electrolytic excretion of sodium and potassium in urine of rats after intravenous administration of 2.49 uM/Kg of drug; format: ADME, organism-based; conditions: in vivo
[11] = system: Canis familiaris; test: Tested for the diuretic activity by measuring the urinary volume after intravenous administering 2.49 uM/Kg of drug in dogs; format: ADME, organism-based, Canis lupus familiaris, Urine; conditions: dog, in vivo
[12] = system: Rattus norvegicus; test: Total electrolytic excretion of sodium in urine of rats after peroral administration of 249 uM/Kg of drug; format: ADME, organism-based; conditions: in vivo, po
[13] = system: Rattus norvegicus; test: Tested for the diuretic activity by measuring the urinary volume after peroral administering 24.9 uM/Kg of drug in rats; format: ADME, organism-based, Urine; conditions: in vivo, po
[14] = system: Rattus norvegicus; test: Total electrolytic excretion of chlorine in urine of rats after peroral administration of 24.9 uM/Kg of drug; format: ADME, organism-based; conditions: in vivo, po
[15] = system: Rattus norvegicus; test: Ratio of Total electrolytic excretion of sodium and potassium in urine of rats after peroral administration of 24.9 uM/Kg of drug; format: ADME, organism-based; conditions: in vivo, po
[16] = system: Rattus norvegicus; test: Total electrolytic excretion of potassium in urine of rats after peroral administration of 249 uM/Kg of drug; format: ADME, organism-based; conditions: in vivo, po
[17] = system: Rattus norvegicus; test: Tested for the diuretic activity by measuring the urinary volume after peroral administering 249 uM/Kg of drug in rats; format: ADME, organism-based, Urine; conditions: in vivo, po
[18] = system: Canis familiaris; test: Total electrolytic excretion of sodium in urine of dogs after intravenous administration of 2.49 uM/Kg of drug; format: ADME, organism-based, Canis lupus familiaris; conditions: dog, in vivo
[19] = system: Rattus norvegicus; test: Ratio of Total electrolytic excretion of sodium and potassium in urine of rats after peroral administration of 249 uM/Kg of drug; format: ADME, organism-based; conditions: in vivo, po
[20] = system: Canis familiaris; test: Total electrolytic excretion of potassium in urine of dogs after intravenous administration of 2.49 uM/Kg of drug; format: ADME, organism-based, Canis lupus familiaris; conditions: dog, in vivo
[21] = system: Rattus norvegicus; test: Ratio of Total electrolytic excretion of sodium and potassium in urine of rats after peroral administration of 58.4 uM/Kg of drug; format: ADME, organism-based; conditions: in vivo, po
[22] = system: Rattus norvegicus; test: Ratio of Total electrolytic excretion of sodium and potassium in urine of rats after intravenous administration of 5.84 uM/Kg of drug; format: ADME, organism-based; conditions: in vivo
[23] = system: Rattus norvegicus; test: Tested for the diuretic activity by measuring the urinary volume after peroral administering 19.5 uM/Kg of drug in rats; format: ADME, organism-based, Urine; conditions: in vivo, po
[24] = system: Rattus norvegicus; test: Tested for the diuretic activity by measuring the urinary volume after peroral administering 58.4 uM/Kg of drug in rats; format: ADME, organism-based, Urine; conditions: in vivo, po
[25] = system: Rattus norvegicus; test: Tested for the diuretic activity by measuring the urinary volume after peroral administering 195 uM/Kg of drug in rats; format: ADME, organism-based, Urine; conditions: in vivo, po
[26] = system: Rattus norvegicus; test: Total electrolytic excretion of potassium in urine of rats after peroral administration of 58.4 uM/Kg of drug; format: ADME, organism-based; conditions: in vivo, po
[27] = system: Rattus norvegicus; test: Total electrolytic excretion of chlorine in urine of rats after peroral administration of 58.4 uM/Kg of drug; format: ADME, organism-based; conditions: in vivo, po
[28] = system: Rattus norvegicus; test: Ratio of Total electrolytic excretion of sodium and potassium in urine of rats after intravenous administration of 19.5 uM/Kg of drug; format: ADME, organism-based; conditions: in vivo
[29] = system: Rattus norvegicus; test: Total electrolytic excretion of potassium in urine of rats after peroral administration of 195 uM/Kg of drug; format: ADME, organism-based; conditions: in vivo, po
[30] = system: Rattus norvegicus; test: Total electrolytic excretion of sodium in urine of rats after peroral administration of 58.4 uM/Kg of drug; format: ADME, organism-based; conditions: in vivo, po
[31] = system: Rattus norvegicus; test: Total electrolytic excretion of sodium in urine of rats after peroral administration of 19.5 uM/Kg of drug; format: ADME, organism-based; conditions: in vivo, po
[32] = system: Rattus norvegicus; test: Total electrolytic excretion of potassium in urine of rats after peroral administration of 19.5 uM/Kg of drug; format: ADME, organism-based; conditions: in vivo, po
[33] = system: Rattus norvegicus; test: Ratio of Total electrolytic excretion of sodium and potassium in urine of rats after peroral administration of 195 uM/Kg of drug; format: ADME, organism-based; conditions: in vivo, po
[34] = system: Rattus norvegicus; test: Total electrolytic excretion of chlorine in urine of rats after peroral administration of 19.5 uM/Kg of drug; format: ADME, organism-based; conditions: in vivo, po
[35] = system: Rattus norvegicus; test: Total electrolytic excretion of sodium in urine of rats after peroral administration of 195 uM/Kg of drug; format: ADME, organism-based; conditions: in vivo, po
[36] = system: Rattus norvegicus; test: Ratio of Total electrolytic excretion of sodium and potassium in urine of rats after peroral administration of 19.5 uM/Kg of drug; format: ADME, organism-based; conditions: in vivo, po
[37] = system: Rattus norvegicus; test: Total electrolytic excretion of chlorine in urine of rats after peroral administration of 195 uM/Kg of drug; format: ADME, organism-based; conditions: in vivo, po

Excretion K+ [1]: 0.33 m equiv | V [2]: 8.3 mL | Excretion Cl- [3]: 1.7 m equiv | Excretion Na+ [4]: 0.87 m equiv | Excretion Cl- [5]: 1.38 m equiv | Excretion K+ [6]: 0.29 m equiv | Ratio [7]: 4.1 | Excretion Cl- [8]: 5.4 m equiv | Excretion Na+ [9]: 1.35 m equiv | Ratio [10]: 4.8 | V [11]: 51 mL | Excretion Na+ [12]: 1.67 m equiv | V [13]: 5.3 mL | Excretion Cl- [14]: 0.98 m equiv | Ratio [15]: 3 | Excretion K+ [16]: 0.42 m equiv | V [17]: 10.8 mL | Excretion Na+ [18]: 8.3 m equiv | Ratio [19]: 4 | Excretion K+ [20]: 2 m equiv
Structure (SMILES): CCOC(=O)N1CCN(/C(=N\C2CCCCC2)NC2CCCCC2)CC1

Ratio [21]: 7.5 [Na+]/[K+] | Ratio [22]: 8 [Na+]/[K+] | V [23]: 10.1 mL | V [24]: 12.8 mL | V [25]: 10.9 mL | Excretion K+ [26]: 0.27 m equiv | Excretion Cl- [27]: 1.97 m equiv | Ratio [28]: 6.8 | Excretion K+ [29]: 0.25 m equiv | Excretion Na+ [30]: 2.04 m equiv | Excretion Na+ [31]: 1.51 m equiv | Excretion K+ [32]: 0.23 m equiv | Ratio [33]: 7.6 [Na+]/[K+] | Excretion Cl- [34]: 1.52 m equiv | Excretion Na+ [35]: 1.9 m equiv | Ratio [36]: 6.6 [Na+]/[K+] | Excretion Cl- [37]: 1.66 m equiv
Structure (SMILES): C1CN(/C(=N\C23CC4CC(CC(C4)C2)C3)NC23CC4CC(CC(C4)C2)C3)CCO1
